# Values quoted from earlier work as cited in EP4046639A1, “PREVENTION OF PULMONARY VASCULAR LEAK IN COVID-19” (priority 2021, dated 2022).
# Where two headings read alike, the source gives them in different places.
# System: Covid-19
structure (smiles),measurement,setting,value
C[C@@H]1C[C@H]2[C@@H]3CCC4=CC(=O)C=C[C@]4(C)[C@@]3(F)[C@@H](O)C[C@]2(C)[C@@]1(O)C(=O)CO [Dexamethason],Covid-19 mortality,"hospitalized patients, reduced from 24",20%
same,Covid-19 mortality,"patients in the intensive care unit (ICU), reduced from 40",30%
